Test results published in ChEMBL document CHEMBL5236606, “Synthesis, Structure-Activity Relationships, and In Vivo Evaluation of Novel C-17 Amine Derivatives Based on GSK3640254 as HIV-1 Maturation Inhibitors with Broad Spectrum Activity” (J Med Chem, 2022).

Key:
[1] = Solubility of compound in FaSSIF at pH 6.5; type: ADME
[2] = Solubility of the compound in FeSSIF at pH 5.0; type: ADME
[3] = Cytotoxicity against human MT2 cells assessed as reduction in cell viability; type: toxicity, cell-based
[4] = system: Human immunodeficiency virus 1; test: Antiviral activity against wild type HIV-1 NLRepRlucP373S harboring T332S/V362I/prR41G mutant infected in human MT2 cells assessed as inhibition of viral growth measured after 4 to 5 days by Dual luciferase reporter assay; type: functional, organism-based; conditions: Human immunodeficiency virus 1, NLRepRlucP373S
[5] = system: Human immunodeficiency virus 1; test: Antiviral activity against wild type HIV-1 NLRepRlucP373S infected in human MT2 cells assessed as inhibition of viral growth measured after 4 to 5 days by Dual luciferase reporter assay; type: functional, organism-based; conditions: Human immunodeficiency virus 1, NLRepRlucP373S
[6] = Fold resistance, ratio of EC50 for antiviral activity against wild type HIV-1 NLRepRlucP373S infected in human MT2 cells assessed as inhibition of viral growth in presence of 10% FBS and 40% human serum supplemented with 27mg/mL of human serum albumin to EC50 for antiviral activity against wild type HIV-1 NLRepRlucP373S infected in human MT2 cells assessed as inhibition of viral growth; type: functional, Human immunodeficiency virus 1
[7] = system: Human immunodeficiency virus 1; test: Antiviral activity against wild type HIV-1 NLRepRlucP373S infected in human MT2 cells assessed as inhibition of viral growth measured after 4 to 5 days in presence of 10% FBS and 40% human serum supplemented with 27 mg/mL of human serum albumin by Dual luciferase reporter assay; type: functional, organism-based; conditions: Human immunodeficiency virus 1, NLRepRlucP373S
[8] = system: Human immunodeficiency virus 1; test: Antiviral activity against wild type HIV-1 NLRepRlucP373S harboring V362I/V370A mutant infected in human MT2 cells assessed as inhibition of viral growth measured after 4 to 5 days by Dual luciferase reporter assay; type: functional, organism-based; conditions: Human immunodeficiency virus 1, NLRepRlucP373S
[9] = system: Human immunodeficiency virus 1; test: Antiviral activity against wild type HIV-1 NLRepRlucP373S harboring deltaV370 mutant infected in human MT2 cells assessed as inhibition of viral growth measured after 4 to 5 days by Dual luciferase reporter assay; type: functional, organism-based; conditions: Human immunodeficiency virus 1, NLRepRlucP373S

Compound | solubility [1] [µM] | solubility [2] [µM] | CC50 [3] [nM] | EC50 [4] [nM] | EC50 [5] [nM] | fold change (FC) [6] | EC50 [7] [nM] | EC50 [8] [nM] | EC50 [9] [nM]
C=C(C)[C@@H]1CC[C@]2(NCCN3CCS(=O)(=O)CC3)CC[C@]3(C)[C@H](CC[C@@H]4[C@@]5(C)CC=C(C6=CC[C@@](CF)(C(=O)O)CC6)C(C)(C)[C@@H]5CC[C@]43C)[C@@H]12.Cl.Cl | 310 | 800 | – | – | – | – | – | – | –
C=C(C)[C@@H]1CC[C@]2(NCCCC(C)(C)O)CC[C@]3(C)[C@H](CC[C@@H]4[C@@]5(C)CC=C(C6=CC[C@](CF)(C(=O)O)CC6)C(C)(C)[C@@H]5CC[C@]43C)[C@@H]12 | – | – | 7500 | 44 | 14 | 6.3 | 84 | – | –
C=C(C)[C@@H]1CC[C@]2(NCCC3CCOCC3)CC[C@]3(C)[C@H](CC[C@@H]4[C@@]5(C)CC=C(C6=CC[C@](CF)(C(=O)O)CC6)C(C)(C)[C@@H]5CC[C@]43C)[C@@H]12 | – | – | 13000 | 160 | 30 | 33 | 980 | – | –
C=C(C)[C@@H]1CC[C@]2(NCC[C@]3(O)CC[C@@](C)(O)CC3)CC[C@]3(C)[C@H](CC[C@@H]4[C@@]5(C)CC=C(C6=CC[C@](CF)(C(=O)O)CC6)C(C)(C)[C@@H]5CC[C@]43C)[C@@H]12 | – | – | 18000 | 6.1 | 1.7 | 9.8 | 16 | – | –
C=C(C)[C@@H]1CC[C@]2(NCCC(C)C)CC[C@]3(C)[C@H](CC[C@@H]4[C@@]5(C)CC=C(C6=CC[C@](CF)(C(=O)O)CC6)C(C)(C)[C@@H]5CC[C@]43C)[C@@H]12 | – | – | 16000 | 930 | 120 | 15 | 1760 | – | –
C=C(C)[C@@H]1CC[C@]2(NCCC3(O)CCN(S(C)(=O)=O)CC3)CC[C@]3(C)[C@H](CC[C@@H]4[C@@]5(C)CC=C(C6=CC[C@](CF)(C(=O)O)CC6)C(C)(C)[C@@H]5CC[C@]43C)[C@@H]12 | – | – | 23000 | 8.3 | 2.6 | 73 | 19 | – | –
C=C(C)[C@@H]1CC[C@]2(NCCC3(O)CCOCC3)CC[C@]3(C)[C@H](CC[C@@H]4[C@@]5(C)CC=C(C6=CC[C@](CF)(C(=O)O)CC6)C(C)(C)[C@@H]5CC[C@]43C)[C@@H]12 | – | – | 9500 | 8.2 | 2 | 15 | 30 | – | –
C=C(C)[C@@H]1CC[C@]2(NCCC3CCS(=O)(=O)CC3)CC[C@]3(C)[C@H](CC[C@@H]4[C@@]5(C)CC=C(C6=CC[C@](CF)(C(=O)O)CC6)C(C)(C)[C@@H]5CC[C@]43C)[C@@H]12 | – | – | 14000 | 14 | 3.9 | 14 | 54 | – | –
C=C(C)[C@@H]1CC[C@]2(NCCC3(O)CCC3)CC[C@]3(C)[C@H](CC[C@@H]4[C@@]5(C)CC=C(C6=CC[C@](CF)(C(=O)O)CC6)C(C)(C)[C@@H]5CC[C@]43C)[C@@H]12 | – | – | 12000 | 16 | 5.6 | 6.4 | 36 | – | –
C=C(C)[C@@H]1CC[C@]2(NCCN3CCN(S(C)(=O)=O)CC3)CC[C@]3(C)[C@H](CC[C@@H]4[C@@]5(C)CC=C(C6=CC[C@](CF)(C(=O)O)CC6)C(C)(C)[C@@H]5CC[C@]43C)[C@@H]12 | – | – | 11400 | 5.7 | 2 | 9 | 18 | – | –
C=C(C)[C@@H]1CC[C@]2(NCCN3CCC(C)(O)CC3)CC[C@]3(C)[C@H](CC[C@@H]4[C@@]5(C)CC=C(C6=CC[C@](CF)(C(=O)O)CC6)C(C)(C)[C@@H]5CC[C@]43C)[C@@H]12 | – | – | 14000 | 5.6 | 1.2 | 16 | 19 | – | –
C=C(C)[C@@H]1CC[C@]2(NCC[C@]3(O)CC[C@H](S(C)(=O)=O)CC3)CC[C@]3(C)[C@H](CC[C@@H]4[C@@]5(C)CC=C(C6=CC[C@](CF)(C(=O)O)CC6)C(C)(C)[C@@H]5CC[C@]43C)[C@@H]12 | – | – | 16000 | 4.6 | 1.5 | 4.1 | 5.9 | – | –
C=C(C)[C@@H]1CC[C@]2(NCCC3(O)CCN(C(C)=O)CC3)CC[C@]3(C)[C@H](CC[C@@H]4[C@@]5(C)CC=C(C6=CC[C@](CF)(C(=O)O)CC6)C(C)(C)[C@@H]5CC[C@]43C)[C@@H]12 | – | – | 14000 | 6.7 | 1.7 | 14 | 24 | – | –
C=C(C)[C@@H]1CC[C@]2(NCCC3(O)COC3)CC[C@]3(C)[C@H](CC[C@@H]4[C@@]5(C)CC=C(C6=CC[C@@](CF)(C(=O)O)CC6)C(C)(C)[C@@H]5CC[C@]43C)[C@@H]12 | – | – | 13000 | 12 | 1.9 | 14 | 27 | – | –
C=C(C)[C@@H]1CC[C@]2(NCCC(C)(C)O)CC[C@]3(C)[C@H](CC[C@@H]4[C@@]5(C)CC=C(C6=CC[C@](CF)(C(=O)O)CC6)C(C)(C)[C@@H]5CC[C@]43C)[C@@H]12 | – | – | 8300 | 8.3 | 1.9 | 14 | 26 | – | –
C=C(C)[C@@H]1CC[C@]2(NCC[C@]3(O)CC[C@](C)(O)CC3)CC[C@]3(C)[C@H](CC[C@@H]4[C@@]5(C)CC=C(C6=CC[C@@](CF)(C(=O)O)CC6)C(C)(C)[C@@H]5CC[C@]43C)[C@@H]12 | – | – | 11000 | 9.2 | 3 | 4.6 | 14 | – | –
C=C(C)[C@@H]1CC[C@]2(NCC[C@]3(O)CC[C@@H](S(C)(=O)=O)CC3)CC[C@]3(C)[C@H](CC[C@@H]4[C@@]5(C)CC=C(C6=CC[C@@](CF)(C(=O)O)CC6)C(C)(C)[C@@H]5CC[C@]43C)[C@@H]12 | – | – | 17000 | 6.5 | 2.3 | 13 | 30 | – | –
C=C(C)[C@@H]1CC[C@]2(NCC(C)(C)O)CC[C@]3(C)[C@H](CC[C@@H]4[C@@]5(C)CC=C(C6=CC[C@](CF)(C(=O)O)CC6)C(C)(C)[C@@H]5CC[C@]43C)[C@@H]12 | – | – | 8700 | 50 | 15 | 9.7 | 147 | – | –
C=C(C)[C@@H]1CC[C@]2(NCCC3(O)CCS(=O)(=O)CC3)CC[C@]3(C)[C@H](CC[C@@H]4[C@@]5(C)CC=C(C6=CC[C@](CF)(C(=O)O)CC6)C(C)(C)[C@@H]5CC[C@]43C)[C@@H]12 | – | – | 14000 | 7.7 | 2.3 | 83 | 19 | – | –
C=C(C)[C@@H]1CC[C@]2(NCCN3CCOCC3)CC[C@]3(C)[C@H](CC[C@@H]4[C@@]5(C)CC=C(C6=CC[C@](CF)(C(=O)O)CC6)C(C)(C)[C@@H]5CC[C@]43C)[C@@H]12 | – | – | 7700 | 18 | 4.5 | 12 | 53 | – | –
C=C(C)[C@@H]1CC[C@]2(NCCN3CCS(=O)(=O)CC3)CC[C@]3(C)[C@H](CC[C@@H]4[C@@]5(C)CC=C(C6=CCC(CF)(C(=O)O)CC6)C(C)(C)[C@@H]5CC[C@]43C)[C@@H]12 (single isomer, unassigned) | – | – | – | – | – | 3.3 | – | – | –
C=C(C)[C@@H]1CC[C@]2(NCCN3CCS(=O)(=O)CC3)CC[C@]3(C)[C@H](CC[C@@H]4[C@@]5(C)CC=C(c6ccc(C(=O)O)cc6)C(C)(C)[C@@H]5CC[C@]43C)[C@@H]12 [BMS-955176] | – | – | 13000 | 700 | – | 2 | – | 3 | 6
